Experimental data: patent publication US6362236B1, “Inhibition of lipoprotein oxidation” (Warner-Lambert Company, priority 1997, dated 2002)

What was measured:
[1] = system: VLDL; assay: Lipoprotein electrophoresis of VLDL after copper ion-induced oxidation; assay type: biochemical, human; conditions: 10 μM CuSO4
Method: Lipoprotein electrophoresis—Lipoproteins (100 μg protein/mL) were incubated without or with the drugs followed by oxidation in the presence of 10 μM CuSO4. Then, electrophoresis of the lipoproteins was performed on 1% agarose using a Hydragel-Lipo kit (Sebia, France).

[2] = system: HDL; assay: CuSO4-induced HDL oxidation; conditions: for inhibition of HDL oxidation in the presence of CuSO4: 10 μM CuSO4; for CuSO4-Induced HDL Oxidation, MDA / CuSO4-Induced HDL Oxidation, Peroxides: 10 μM drug, 10 μM CuSO4, 4 hours at 37° C.; for CuSO4-Induced HDL Oxidation, MDA: Control 9.1 ± 0.1; for CuSO4-Induced HDL Oxidation, Peroxides: Control 122 ± 14
[3] = system: VLDL; assay: AAPH-induced VLDL oxidation; conditions: for inhibition of VLDL oxidation (TBARS), AAPH oxidative system: 10 μM compound, 4 hours at 37° C.; for VLDL-associated peroxide content, AAPH system: control VLDL 2169±329
[4] = Free radical scavenging capacity (DPPH assay); conditions: 20 μM; after 300 seconds of incubation
Method: Free radical scavenging capacity—The free radical scavenging capacities of the drugs were analyzed by the 1,1-diphenyl-2-picryl-hydrazyl (DPPH) assay. Each drug (20 μM) was mixed with 3 mL of 0.1 nmol DPPH/1 (in ethanol). The time course of the change in the optical density at 517 nm was then kinetically monitored.

[5] = system: LDL; assay: LDL oxidation in all oxidative systems studied (CuSO4, AAPH, J-774A.1 macrophages), summary statements; assay type: biochemical, human; conditions: for inhibition of LDL oxidation in all oxidative systems studied (in words): CuSO4, AAPH and J-774A.1 macrophage systems; for inhibition of lipid peroxidation induced by copper ions, AAPH or J-774A.1 macrophages: pharmacological concentrations, summary over systems
[6] = system: VLDL; assay: Copper ion (CuSO4)-induced VLDL oxidation; conditions: for inhibition of VLDL oxidation (TBARS), copper ion oxidative system: 10 μM compound, 4 hours at 37° C.; for VLDL-associated peroxide content, CuSO4 system: control VLDL 1818±333
[7] = system: HDL-associated paraoxonase; assay: HDL-associated paraoxonase activity after CuSO4-induced HDL oxidation; assay type: biochemical, human; conditions: for protection of HDL-associated paraoxonase: HDL oxidized with CuSO4, versus HDL oxidized without drug; for Paraoxonase Specific Activity: after CuSO4-induced HDL oxidation, before incubation 50±3
Text: . One unit of paraoxonase activity produces 1 nmol of p-nitrophenol per minute.

[8] = system: LDL; assay: AAPH (free radical generator)-induced LDL oxidation; assay type: biochemical, human; conditions: for inhibition of LDL oxidation measured by the TBARS assay, AAPH system: 10 μM compound, 5 mM AAPH, 4 hours at 37° C.; for LDL-associated peroxides content, AAPH system: control LDL 990±89
[9] = system: J-774 A.1 murine macrophages-like cell line; conditions: 10 μM compound; J-774 A.1 cells, 2 μM CuSO4, 20 hours
Method: The macrophages were grown in Dulbecco's Modified Eagles Medium (DMEM) supplemented with 5% heat inactivated fetal calf serum (FCS). For the lipoprotein oxidation studies, cells (1×10^6/35 mm dish) were incubated with LDL (100 μg of protein/mL) in RPMI medium (without phenol red) in the presence of 2 μM CuSO4 for 20 hours at 37° C. in the incubator. Control LDL was also incubated in a cell-free system under the same conditions. At the end of the incubation period, the extent of LDL oxidation was measured in the medium (after centrifugation at 1000×g for 10 minutes) by the TBARS assay. Cell-mediated oxidation of LDL was calculated by subtracting the values obtained in the cell-free system from those obtained with the cells.

[10] = system: LDL; assay: Copper ion (CuSO4)-induced LDL oxidation; assay type: biochemical, human; conditions: for inhibition of LDL oxidation measured by the TBARS assay, CuSO4 system: 10 μM compound, 10 μM CuSO4, 4 hours at 37° C., LDL 100 μg of protein/mL; for LDL-associated peroxides content, CuSO4 system: control LDL 710±51
[11] = Method: For the lipid peroxidation experiments, 500 μL of membrane vesicles were enriched with dilinoleoyl phosphatidylcholine (DLPC) at a concentration of 1.0 mg DLPC/mL. […] The extent of lipid peroxidation in each sample was determined by a spectrophotometric assay for lipid peroxides in serum lipoproteins using a color reagent known as CHOD-iodide (Merck, Darmstadt, FRG, Merck Cat. No. 14106). The color reagent has the following composition:
The concentration of triiodide formed was measured spectrophotometrically according to the formula (L=lipoprotein) [formula]
To each of the withdrawn aliquots of membrane vesicles was added 1.0 mL of the CHOD color reagent, and the sample was incubated in the absence of light for 4 hours. […] Lipid peroxide formation was measured in triplicate and values were expressed as mean±SD. The significance of differences between results from different experimental conditions was tested using the two-tailed student t-test.

Compound: CC(C)c1c(C(=O)Nc2ccccc2O)c(-c2ccccc2)c(-c2ccc(F)cc2)n1CC[C@@H](O)C[C@@H](O)CC(=O)O [ortho-hydroxy metabolite, ortho-hydroxy atorvastatin]
- lipoprotein electrophoretic migration of oxidized VLDL [1]: reduce lipoprotein electrophoretic migration
- inhibition of HDL oxidation in the presence of CuSO4 [2]: completely inhibited
- CuSO4-Induced HDL Oxidation, MDA ([2]; Table 1): 0.2 ± 0.1 nmoL/mg HDL Protein
- CuSO4-Induced HDL Oxidation, Peroxides ([2]; Table 1): 9 ± 1 nmoL/mg HDL Protein
- inhibition of VLDL oxidation (TBARS), AAPH oxidative system [3]: 43%
- VLDL-associated peroxide content, AAPH system [3]: 1228±210 nmol VLDL protein
- reduction in the absorbance at 517 nm (DPPH assay) [4]: 37%
- inhibition of LDL oxidation in all oxidative systems studied (in words) [5]: inhibited
- inhibition of VLDL oxidation (TBARS), copper ion oxidative system [6]: 79%
- VLDL-associated peroxide content, CuSO4 system [6]: 242±22 nmol/mg VLDL protein
- protection of HDL-associated paraoxonase [7]: 54%
- Paraoxonase Specific Activity ([7]; Table 1, Control 26 ± 2): 40 ± 4 nmoL/mg HDL Protein/min
- inhibition of LDL oxidation measured by the TBARS assay, AAPH system [8]: 44%
- LDL-associated peroxides content, AAPH system [8]: 554±32 nmol/mg LDL protein
- inhibition of LDL oxidation measured by the TBARS assay, macrophage system [9]: 50%
- inhibition of LDL oxidation measured by the TBARS assay, CuSO4 system [10]: 73%
- LDL-associated peroxides content, CuSO4 system [10]: 192±15 nmol/mg LDL protein
- inhibitory effect on copper ion-induced LDL oxidation (TBARS) ([10]; metabolite I of gemfibrozil 3 μM, ortho-hydroxy metabolite of atorvastatin 4 μM, alone or in combination, 10 μM CuSO4, 4 hours): 43%

Compound: vitamin E
- reduction in the absorbance at 517 nm (DPPH assay) [4]: 95%

Compound: CC(C)c1c(C(=O)Nc2ccccc2)c(-c2ccccc2)c(-c2ccc(F)cc2)n1CC[C@@H](O)C[C@@H](O)CC(=O)O [atorvastatin, reference compound]
- CuSO4-Induced HDL Oxidation, MDA ([2]; Table 1): 9.6 ± 0.5 nmoL/mg HDL Protein
- CuSO4-Induced HDL Oxidation, Peroxides ([2]; Table 1): 122 ± 15 nmoL/mg HDL Protein
- inhibition of VLDL oxidation (TBARS), AAPH oxidative system [3]: no effect
- reduction in the absorbance at 517 nm (DPPH assay) [4]: not by atorvastatin
- inhibition of lipid peroxidation induced by copper ions, AAPH or J-774A.1 macrophages [5]: not inhibited
- inhibition of VLDL oxidation (TBARS), copper ion oxidative system [6]: no effect
- Paraoxonase Specific Activity ([7]; Table 1, Control 26 ± 2): 29 ± 4 nmoL/mg HDL Protein/min

Compound: CC(C)c1c(C(=O)Nc2ccc(O)cc2)c(-c2ccccc2)c(-c2ccc(F)cc2)n1CC[C@@H](O)C[C@@H](O)CC(=O)O [para-hydroxy metabolite, para-hydroxy atorvastatin]
- inhibition of HDL oxidation in the presence of CuSO4 [2]: about 50%
- CuSO4-Induced HDL Oxidation, MDA ([2]; Table 1): 4.5 ± 0.3 nmoL/mg HDL Protein
- CuSO4-Induced HDL Oxidation, Peroxides ([2]; Table 1): 65 ± 9 nmoL/mg HDL Protein
- inhibition of VLDL oxidation (TBARS), AAPH oxidative system [3]: 16%
- VLDL-associated peroxide content, AAPH system [3]: 1819±228 nmol VLDL protein
- reduction in the absorbance at 517 nm (DPPH assay) [4]: 28%
- inhibition of lipid peroxidation in membrane vesicles ([11]; 10.0 μM compound): 80%
- comparative antioxidant potency versus Vitamin E and probucol ([11]; FIG. 12): significantly more active
- antioxidant activity under atherosclerotic-like conditions of elevated membrane cholesterol ([11]; FIG. 13): increased
- levels of lipid peroxidation inhibited ([11]; at concentrations as low as 10.0 μM): > 10^2 μM
- inhibition of LDL oxidation in all oxidative systems studied (in words) [5]: inhibited
- inhibition of VLDL oxidation (TBARS), copper ion oxidative system [6]: 37%
- VLDL-associated peroxide content, CuSO4 system [6]: 1088±310 nmol/mg VLDL protein
- protection of HDL-associated paraoxonase [7]: 27%
- Paraoxonase Specific Activity ([7]; Table 1, Control 26 ± 2): 33 ± 3 nmoL/mg HDL Protein/min
- inhibition of LDL oxidation measured by the TBARS assay, AAPH system [8]: 34%
- LDL-associated peroxides content, AAPH system [8]: 624±38 nmol/mg LDL protein
- inhibition of LDL oxidation measured by the TBARS assay, macrophage system [9]: 46%
- inhibition of LDL oxidation measured by the TBARS assay, CuSO4 system [10]: 60%
- LDL-associated peroxides content, CuSO4 system [10]: 284±13 nmol/mg LDL protein

Compound: Cc1ccc(C)c(OCCCC(C)(C)C(=O)O)c1 [gemfibrozil, reference compound]
- inhibition of HDL oxidation in the presence of CuSO4 [2]: no effect
- CuSO4-Induced HDL Oxidation, MDA ([2]; Table 2): 8.2 ± 0.4 nmoL/mg HDL Protein
- CuSO4-Induced HDL Oxidation, Peroxides ([2]; Table 2): 134 ± 13 nmoL/mg HDL Protein
- reduction in the absorbance at 517 nm (DPPH assay) [4]: not gemfibrozil itself
- inhibition of lipid peroxidation induced by copper ions, AAPH or J-774A.1 macrophages [5]: not inhibited
- protection of HDL-associated paraoxonase [7]: no effect
- Paraoxonase Specific Activity ([7]; Table 2, Control 26 ± 3): 27 ± 5 nmoL/mg HDL Protein/min
- lag time for the initiation of LDL oxidation (conjugated dienes formation) ([10]; gemfibrozil experiment, LDL alone 60±9): 60 ± 9 min
